Laboratory results published in PMC7587962, “Evaluation of Cytotoxicity and α-Glucosidase Inhibitory Activity of Amide and Polyamino-Derivatives of Lupane Triterpenoids” (Molecules, 2020).

Key:
HT29 = assay: NCI-60 SRB screen: colon cancer HT29; assay type: cell-based; conditions: Homo sapiens, HT29
NCI-H460 = assay: NCI-60 SRB screen: non-small cell lung cancer NCI-H460; assay type: cell-based; conditions: Homo sapiens, 48 h, NCI-H460
TK-10 = assay: NCI-60 SRB screen: renal cancer TK-10; assay type: cell-based, human; conditions: TK-10
HOP-62 = assay: NCI-60 SRB screen: non-small cell lung cancer HOP-62; assay type: cell-based, human; conditions: HOP-62
RPMI-8226 = assay: NCI-60 SRB screen: leukemia RPMI-8226; assay type: cell-based; conditions: Homo sapiens, 48 h, RPMI-8226
T-47D = assay: NCI-60 SRB screen: breast cancer T-47D; assay type: cell-based, human; conditions: T-47D
MDA-MB-231/ATCC = assay: NCI-60 SRB screen: breast cancer MDA-MB-231/ATCC; assay type: cell-based; conditions: Homo sapiens, 48 h
RXF 393 = assay: NCI-60 SRB screen: renal cancer RXF 393; assay type: cell-based, human; conditions: RXF 393
SF-268 = assay: NCI-60 SRB screen: CNS cancer SF-268; assay type: cell-based, human; conditions: SF-268
OVCAR-5 = assay: NCI-60 SRB screen: ovarian cancer OVCAR-5; assay type: cell-based, human; conditions: OVCAR-5
MDA-MB-435 = assay: NCI-60 SRB screen: melanoma MDA-MB-435; assay type: cell-based, human; conditions: MDA-MB-435
ACHN = assay: NCI-60 SRB screen: renal cancer ACHN; assay type: cell-based, human
MALME-3M = assay: NCI-60 SRB screen: melanoma MALME-3M; assay type: cell-based, human; conditions: MALME-3M
HS 578T = assay: NCI-60 SRB screen: breast cancer HS 578T; assay type: cell-based, human; conditions: HS 578T
IGROV1 = assay: NCI-60 SRB screen: ovarian cancer IGROV1; assay type: cell-based, human; conditions: IGROV1
EKVX = assay: NCI-60 SRB screen: non-small cell lung cancer EKVX; assay type: cell-based, human
OVCAR-3 = assay: NCI-60 SRB screen: ovarian cancer OVCAR-3; assay type: cell-based, human; conditions: OVCAR-3
NCI-H23 = assay: NCI-60 SRB screen: non-small cell lung cancer NCI-H23; assay type: cell-based, human; conditions: NCI-H23
DU-145 = assay: NCI-60 SRB screen: prostate cancer DU-145; assay type: cell-based, human; conditions: DU-145
MOLT-4 = assay: NCI-60 SRB screen: leukemia MOLT-4; assay type: cell-based; conditions: Homo sapiens, 48 h, MOLT-4
CAKI-1 = assay: NCI-60 SRB screen: renal cancer CAKI-1; assay type: cell-based, human; conditions: CAKI-1
Renal Cancer subpanel = assay: NCI-60 screen, subpanel Renal Cancer
SF-539 = assay: NCI-60 SRB screen: CNS cancer SF-539; assay type: cell-based, human; conditions: SF-539
OVCAR-8 = assay: NCI-60 SRB screen: ovarian cancer OVCAR-8; assay type: cell-based, human; conditions: OVCAR-8
CCRF-CEM = assay: NCI-60 SRB screen: leukemia CCRF-CEM; assay type: cell-based; conditions: Homo sapiens, 48 h
U251 = assay: NCI-60 SRB screen: CNS cancer U251; assay type: cell-based; conditions: Homo sapiens, U251
HOP-92 = assay: NCI-60 SRB screen: non-small cell lung cancer HOP-92; assay type: cell-based, human; conditions: HOP-92
KM12 = assay: NCI-60 SRB screen: colon cancer KM12; assay type: cell-based, human; conditions: KM12
SNB-75 = assay: NCI-60 SRB screen: CNS cancer SNB-75; assay type: cell-based, human; conditions: SNB-75
Ovarian Cancer subpanel = assay: NCI-60 screen, subpanel Ovarian Cancer
NSCL cancer subpanel = assay: NCI-60 screen, subpanel NSCL cancer
K-562 = assay: NCI-60 SRB screen: leukemia K-562; assay type: cell-based, human; conditions: K-562
A549/ATCC = assay: NCI-60 SRB screen: non-small cell lung cancer A549/ATCC; assay type: cell-based, human; conditions: A549/ATCC
SK-MEL-5 = assay: NCI-60 SRB screen: melanoma SK-MEL-5; assay type: cell-based, human; conditions: SK-MEL-5
NCI-H322M = assay: NCI-60 SRB screen: non-small cell lung cancer NCI-H322M; assay type: cell-based, human
HCC-2998 = assay: NCI-60 SRB screen: colon cancer HCC-2998; assay type: cell-based, human; conditions: HCC-2998
SF-295 = assay: NCI-60 SRB screen: CNS cancer SF-295; assay type: cell-based, human; conditions: SF-295
[1] = single dose 10 µM, read-out: Percentage Cell Growth
[2] = five concentrations, SRB, read-out: GI50
[3] = Homo sapiens, five concentrations, 48 h, SRB, read-out: GI50

C=C(C)[C@@H]1CC[C@]2(C(=O)NCCCN)CC[C@]3(C)[C@H](CC[C@@H]4[C@@]5(C)CCC(=O)C(C)(C)[C@@H]5CC[C@]43C)[C@@H]12 [Compound 10]
activity at 10 µM (HT29; HT-29, 48 h, single dose 10 µM, read-out: Percentage Cell Growth): 3.9%
GI50 (HT29; HT-29, five concentrations, 48 h, SRB, read-out: GI50): 6.95 µM
activity at 10 µM (NCI-H460; [1]): -43.2%
GI50 (NCI-H460; [2]): 14 µM
GI50 (TK-10; [3]): 23.9 µM
Percentage Cell Growth (TK-10; single dose 10 µM): −32.23%
Percentage Cell Growth (HOP-62; single dose 10 µM): −26.80%
GI50 (HOP-62; [3]): 18.3 µM
activity at 10 µM (RPMI-8226; [1]): -6.66%
GI50 (RPMI-8226; [2]): 17.2 µM
GI50 (T-47D; Homo sapiens, T47D, five concentrations, 48 h, SRB, read-out: GI50): 13.1 µM
Percentage Cell Growth (T-47D; single dose 10 µM): −12.76%
activity at 10 µM (MDA-MB-231/ATCC; MDA-MB-231/ATCC, single dose 10 µM, read-out: Percentage Cell Growth): -47.8%
GI50 (MDA-MB-231/ATCC; MDA-MB-231, MDA-MB-31/ATCC, five concentrations, SRB, read-out: GI50): 21.1 µM
GI50 (RXF 393; [3]): 17.1 µM
Percentage Cell Growth (RXF 393; single dose 10 µM): −42.28%
GI50 (SF-268; [3]): 23 µM
Percentage Cell Growth (SF-268; single dose 10 µM): −16.88%
GI50 (OVCAR-5; [3]): 14.8 µM
Percentage Cell Growth (OVCAR-5; single dose 10 µM): −47.68%
GI50 (MDA-MB-435; [3]): 28.7 µM
Percentage Cell Growth (MDA-MB-435; single dose 10 µM): −32.41%
GI50 (ACHN; [3]): 21.7 µM
Percentage Cell Growth (ACHN; single dose 10 µM): −49.24%
GI50 (MALME-3M; [3]): 23.3 µM
Percentage Cell Growth (MALME-3M; single dose 10 µM): −18.76%
Percentage Cell Growth (HS 578T; single dose 10 µM): −4.98%
GI50 (HS 578T; [3]): 40.5 µM
GI50 (IGROV1; Homo sapiens, IGROV-1, five concentrations, 48 h, SRB, read-out: GI50): 21.5 µM
Percentage Cell Growth (IGROV1; single dose 10 µM): −6.94%
GI50 (EKVX; [3]): 23.3 µM
Percentage Cell Growth (EKVX; single dose 10 µM): −15.68%
GI50 (OVCAR-3; [3]): 15.7 µM
Percentage Cell Growth (OVCAR-3; single dose 10 µM): −45.89%
GI50 (NCI-H23; [3]): 22.6 µM
Percentage Cell Growth (NCI-H23; single dose 10 µM): −8.47%
Percentage Cell Growth (DU-145; single dose 10 µM): −100.00%
GI50 (DU-145; [3]): 17.5 µM
activity at 10 µM (MOLT-4; [1]): 2.76%
GI50 (MOLT-4; [2]): 12.9 µM
Percentage Cell Growth (CAKI-1; single dose 10 µM): −54.52%
GI50 (CAKI-1; [3]): 21.9 µM
MID b, average sensitivity of all cell line of particular subpanel (Renal Cancer subpanel): 23.80 µM
Selectivity, ratio MID a: MID b (Renal Cancer subpanel): 0.86
GI50 (SF-539; [3]): 17.9 µM
Percentage Cell Growth (SF-539; single dose 10 µM): −36.20%
GI50 (OVCAR-8; [3]): 27.7 µM
Percentage Cell Growth (OVCAR-8; single dose 10 µM): −3.81%
activity at 10 µM (CCRF-CEM; [1]): 1.39%
GI50 (CCRF-CEM; [2]): 22.1 µM
activity at 10 µM (U251; U-251, 48 h, single dose 10 µM, read-out: Percentage Cell Growth): -13.8%
GI50 (U251; U-251, five concentrations, 48 h, SRB, read-out: GI50): 17.7 µM
Percentage Cell Growth (HOP-92; single dose 10 µM): −55.49%
GI50 (HOP-92; [3]): 10.8 µM
GI50 (KM12; [3]): 17.3 µM
Percentage Cell Growth (KM12; single dose 10 µM): −25.31%
GI50 (SNB-75; [3]): 32.1 µM
Percentage Cell Growth (SNB-75; single dose 10 µM): −51.56%
MID b, average sensitivity of all cell line of particular subpanel (Ovarian Cancer subpanel): 24.63 µM
Selectivity, ratio MID a: MID b (Ovarian Cancer subpanel): 0.83
MID b, average sensitivity of all cell line of particular subpanel (NSCL cancer subpanel): 18.71 µM
Selectivity, ratio MID a: MID b (NSCL cancer subpanel): 1.09
GI50 (K-562; Homo sapiens, K562, five concentrations, 48 h, SRB, read-out: GI50): 9.84 µM
Percentage Cell Growth (K-562; single dose 10 µM): 1.10%
Percentage Cell Growth (A549/ATCC; single dose 10 µM): −4.70%
GI50 (A549/ATCC; [3]): 19.6 µM
GI50 (SK-MEL-5; [3]): 19.4 µM
Percentage Cell Growth (SK-MEL-5; single dose 10 µM): −23.93%
GI50 (NCI-H322M; [3]): 17.6 µM
Percentage Cell Growth (NCI-H322M; single dose 10 µM): −68.83%
Percentage Cell Growth (HCC-2998; single dose 10 µM): −23.40%
GI50 (HCC-2998; [3]): 21.4 µM
GI50 (SF-295; [3]): 22.6 µM
Percentage Cell Growth (SF-295; single dose 10 µM): −26.39%
